Laboratory results as given in patent US20240092761A1, “QUINAZOLINE COMPOUNDS AND METHODS OF USE” (IAMBIC THERAPEUTICS, INC., priority 2022, published 2024).

Assays:
MCF-7 cells = assay: Cell Growth Inhibition, MCF-7 (CellTiterGlo, 6 days); type: cell-based; conditions: Homo sapiens, MCF7, 144 h; MCF-7, 6-day treatment, CellTiterGlo 2.0
How it was run: (§1)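 Compounds were run in half-log series, usually 10–10,000 nM, with 500 cells/well of OVCAR-3 or MCF-7 in RPMI plus 10% FBS. After a 6-day culture at 37 °C, viability was read by CellTiterGlo luminescence. Inhibition relative to control was fitted (four-parameter, variable slope) for IC50.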

[1] = biological target: CDK2/Cyclin E1 full length (Homo sapiens (Human), UniProt P24941); assay: CDK2/Cyclin E1 Full Length ADP-Glo Kinase Assay; type: biochemical; conditions: 20 uM ATP, read-out: CDK2/ CyclinE1 IC50
How it was run: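 ADP-Glo luminescence read-out of ADP formed by 0.328 nM wild-type full-length CDK2/Cyclin E1, 90 min at room temperature with 0.75 uM substrate and 20 uM ATP (Km 64.78 uM), after 30 min enzyme–inhibitor pre-incubation; 50 mM HEPES pH 7.5, 2% DMSO. Four-parameter IC50 fit.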

CDK4/Cyclin D1 = CDK4/Cyclin D1 (Homo sapiens (Human), UniProt P11802); assay: CDK4/Cyclin D1 CHEF Assay (AQT0258 peptide); type: biochemical; conditions: 200 uM ATP, read-out: CDK4/ CyclinD1 AQT IC50
How it was run: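 CDK4/Cyclin D1 (2.5 nM) phosphorylating 10 uM Sox-labelled peptide AQT0258 with 200 uM ATP (Km 195.2 uM), 10 mM MgCl2, 2% DMSO, 54 mM HEPES pH 7.5. Enzyme and inhibitor pre-incubated 30 min, reaction 3 hrs at 22° C.; CHEF fluorescence (ex 360/em 485 nm), IC50 from fractional velocity, 4-parameter fit.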

OVCAR-3 cells = assay: Cell Growth Inhibition, OVCAR-3 (CellTiterGlo, 6 days); type: cell-based; conditions: Homo sapiens, 144 h; OVCAR-3, 6-day treatment, CellTiterGlo 2.0
How it was run: as §1

CDK1/Cyclin B1 = CDK1/Cyclin B1 (Homo sapiens (Human), UniProt P06493); assay: CDK1/Cyclin B1 ADP-Glo Kinase Assay; type: biochemical; conditions: 80 uM ATP
How it was run: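 Luminescent ADP-Glo detection of ADP produced over 90 min at room temperature. Enzyme complex 4.917 nM, pre-exposed 30 min to inhibitor; ATP 80 µM (near Km 78.6 µM), substrate 0.75 µM, HEPES pH 7.5, 2% DMSO. Fractional velocity fitted to 4-parameter IC50 equation.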

CDK6/Cyclin D3 = CDK6/Cyclin D3 (Homo sapiens (Human), UniProt Q00534); assay: CDK6/Cyclin D3 ADP-Glo Kinase Assay; type: biochemical; conditions: 100 uM ATP, read-out: CDK6/ CyclinD3 IC50
How it was run: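 Luminescent ADP-Glo read-out of ADP produced, used to fit IC50 (4-parameter equation on fractional velocity against inhibitor concentration). Kinase reaction: enzyme and inhibitor together 30 min, then ATP-containing substrate added for 90 min, all at room temperature.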

Sequence of CDK1/Cyclin B1 (P06493 whole entry): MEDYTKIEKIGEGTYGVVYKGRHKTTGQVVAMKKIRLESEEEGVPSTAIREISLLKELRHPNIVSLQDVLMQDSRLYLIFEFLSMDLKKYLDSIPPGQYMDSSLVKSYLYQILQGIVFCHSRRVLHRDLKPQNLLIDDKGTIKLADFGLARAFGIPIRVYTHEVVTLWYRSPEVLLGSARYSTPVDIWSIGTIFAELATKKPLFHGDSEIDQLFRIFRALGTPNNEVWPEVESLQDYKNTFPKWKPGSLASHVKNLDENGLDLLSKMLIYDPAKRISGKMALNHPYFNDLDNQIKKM
Sequence of CDK1/Cyclin B1 (P14635 whole entry partner): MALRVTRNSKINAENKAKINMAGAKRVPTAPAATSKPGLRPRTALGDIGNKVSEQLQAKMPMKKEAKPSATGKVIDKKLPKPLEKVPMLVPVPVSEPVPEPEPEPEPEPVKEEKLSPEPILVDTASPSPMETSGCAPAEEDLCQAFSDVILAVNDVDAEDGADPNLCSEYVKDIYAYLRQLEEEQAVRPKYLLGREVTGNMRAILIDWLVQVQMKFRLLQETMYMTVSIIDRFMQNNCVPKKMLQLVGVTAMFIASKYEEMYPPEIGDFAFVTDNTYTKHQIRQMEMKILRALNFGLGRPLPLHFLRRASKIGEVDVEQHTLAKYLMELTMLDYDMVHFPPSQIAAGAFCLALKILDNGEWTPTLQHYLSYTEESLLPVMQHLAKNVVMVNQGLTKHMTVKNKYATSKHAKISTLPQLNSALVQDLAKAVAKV
Sequence of CDK4/Cyclin D1 (P11802 whole entry): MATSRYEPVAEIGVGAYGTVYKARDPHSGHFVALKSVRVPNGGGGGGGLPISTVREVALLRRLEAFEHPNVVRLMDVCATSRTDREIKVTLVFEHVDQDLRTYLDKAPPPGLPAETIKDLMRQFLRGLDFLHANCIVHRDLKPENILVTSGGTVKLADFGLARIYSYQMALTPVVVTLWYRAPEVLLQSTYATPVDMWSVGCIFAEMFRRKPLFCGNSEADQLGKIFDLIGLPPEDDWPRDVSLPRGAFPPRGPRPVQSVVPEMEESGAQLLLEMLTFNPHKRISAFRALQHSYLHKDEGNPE
Sequence of CDK4/Cyclin D1 (P24385 whole entry partner): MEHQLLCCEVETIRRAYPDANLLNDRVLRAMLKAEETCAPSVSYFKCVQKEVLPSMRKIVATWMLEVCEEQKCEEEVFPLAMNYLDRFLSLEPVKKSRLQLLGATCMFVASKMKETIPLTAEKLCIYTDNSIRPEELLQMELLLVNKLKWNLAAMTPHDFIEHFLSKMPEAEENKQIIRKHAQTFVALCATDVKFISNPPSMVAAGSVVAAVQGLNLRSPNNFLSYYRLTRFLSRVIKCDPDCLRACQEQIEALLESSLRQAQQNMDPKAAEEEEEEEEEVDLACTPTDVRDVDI
Sequence of CDK6/Cyclin D3 (Q00534 whole entry): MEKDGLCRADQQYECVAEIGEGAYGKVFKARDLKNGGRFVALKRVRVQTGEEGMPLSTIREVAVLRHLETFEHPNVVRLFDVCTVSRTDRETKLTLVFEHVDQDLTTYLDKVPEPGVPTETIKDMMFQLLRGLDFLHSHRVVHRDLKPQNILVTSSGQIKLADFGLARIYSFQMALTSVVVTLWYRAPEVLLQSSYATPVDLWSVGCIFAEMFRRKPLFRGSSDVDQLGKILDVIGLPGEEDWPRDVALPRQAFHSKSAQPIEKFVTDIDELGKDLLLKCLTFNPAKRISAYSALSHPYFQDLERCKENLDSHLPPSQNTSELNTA
Sequence of CDK6/Cyclin D3 (P30281 whole entry partner): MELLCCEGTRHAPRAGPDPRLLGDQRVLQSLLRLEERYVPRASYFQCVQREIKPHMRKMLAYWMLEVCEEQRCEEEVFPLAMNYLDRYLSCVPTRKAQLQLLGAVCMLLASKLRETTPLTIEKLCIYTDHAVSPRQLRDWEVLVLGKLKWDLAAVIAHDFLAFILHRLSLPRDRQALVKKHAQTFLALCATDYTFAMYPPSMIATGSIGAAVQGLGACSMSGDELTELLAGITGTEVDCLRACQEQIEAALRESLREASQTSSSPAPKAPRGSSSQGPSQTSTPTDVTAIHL

Structure (SMILES) | IC50 (MCF-7 cells) | IC50 [1] | IC50 (CDK4/Cyclin D1) | IC50 (OVCAR-3 cells) | IC50 (CDK1/Cyclin B1) | IC50 (CDK6/Cyclin D3)
CN1Cc2cc(F)c(Nc3ncc4cc(C(F)F)cc(N5CC6(CNC6)C5)c4n3)cc2C1 [Example 61, 6-(difluoromethyl)-N-(6-fluoro-2-methylisoindolin-5-yl)-8-(2,6-diazaspiro[3.3]heptan-2-yl)quinazolin-2-amine] | > 2000 nM | < 200 nM | 200 to 500 nM | > 2000 nM | 500 to 2000 nM | 500 to 2000 nM
O=S(=O)(C1CC1)N1CCC(Nc2ncc3cc(C(F)F)cc(N4CC5(CNCCO5)C4)c3n2)CC1 [Example 98, N-(1-(cyclopropylsulfonyl)piperidin-4-yl)-6-(difluoromethyl)-8-(5-oxa-2,8-diazaspiro[3.5]nonan-2-yl)quinazolin-2-amine] | 200 to 500 nM | < 200 nM | < 200 nM | 500 to 2000 nM | < 200 nM | < 200 nM
CN1CC2(CCN(c3cc(C(F)F)cc4cnc(NC5CCN(S(C)(=O)=O)CC5)nc34)C2)C1 [Example 62, 6-(difluoromethyl)-8-(2-methyl-2,6-diazaspiro[3.4]octan-6-yl)-N-(1-(methylsulfonyl)piperidin-4-yl)quinazolin-2-amine] | < 200 nM | < 200 nM | < 200 nM | 500 to 2000 nM | 200 to 500 nM | < 200 nM
O=S(=O)(N1CCC(Nc2ncc3cc(C(F)F)cc(N4CCC5(CNC5)C4)c3n2)CC1)C1(C(F)F)CC1 [Example 88, 6-(difluoromethyl)-N-(1-((1-(difluoromethyl)cyclopropyl)sulfonyl)piperidin-4-yl)-8-(2,6-diazaspiro[3.4]octan-6-yl)quinazolin-2-amine] | 200 to 500 nM | < 200 nM | < 200 nM | 200 to 500 nM | < 200 nM | < 200 nM
O=S(=O)(N1CCC(Nc2ncc3cc(C(F)F)cc(N4CC5(CCNC5)C4)c3n2)CC1)C1(C(F)F)CC1 [Example 93, 6-(difluoromethyl)-N-(1-((1-(difluoromethyl)cyclopropyl)sulfonyl)piperidin-4-yl)-8-(2,6-diazaspiro[3.4]octan-2-yl)quinazolin-2-amine] | 200 to 500 nM | < 200 nM | < 200 nM | < 200 nM | < 200 nM | < 200 nM
COCCN1CC2(CC(c3cc(C(F)F)cc4cnc(NC5CCN(S(C)(=O)=O)CC5)nc34)C2)C1 [Example 89, 6-(difluoromethyl)-8-(2-(2-methoxyethyl)-2-azaspiro[3.3]heptan-6-yl)-N-(1-(methylsulfonyl)piperidin-4-yl)quinazolin-2-amine] | 200 to 500 nM | < 200 nM | < 200 nM | < 200 nM | < 200 nM | < 200 nM
CN1Cc2ccc(Nc3ncc4cc(C(F)F)cc(N5CCC6(CN(C)C6)C5)c4n3)cc2C1 [Example 66, 6-(difluoromethyl)-8-(2-methyl-2,6-diazaspiro[3.4]octan-6-yl)-N-(2-methylisoindolin-5-yl)quinazolin-2-amine] | 500 to 2000 nM | < 200 nM | < 200 nM | 500 to 2000 nM | 500 to 2000 nM | < 200 nM
CN1CCc2cc(Nc3ncc4cc(C(F)F)cc(N5CC6(C5)CN(C5CC5)C6)c4n3)ccc2C1 [Example 79, 8-(6-cyclopropyl-2,6-diazaspiro[3.3]heptan-2-yl)-6-(difluoromethyl)-N-(2-methyl-1,2,3,4-tetrahydroisoquinolin-6-yl)quinazolin-2-amine] | 500 to 2000 nM | 200 to 500 nM | < 200 nM | 500 to 2000 nM | > 2000 nM | < 200 nM
CS(=O)(=O)N1CCC(Nc2ncc3cc(C(F)F)cc(N4CC5(CNCC5(F)F)C4)c3n2)CC1 [Example 115, 8-(8,8-difluoro-2,6-diazaspiro[3.4]octan-2-yl)-6-(difluoromethyl)-N-(1-(methylsulfonyl)piperidin-4-yl)quinazolin-2-amine] | 500 to 2000 nM | < 200 nM | < 200 nM | 500 to 2000 nM | < 200 nM | < 200 nM
